The values that follow are results of earlier work, collected in patent US20080107740A1, “Pharmaceutical composition comprising salmeterol and budesonide for the treatment of respiratory disorders” (GALEPHAR M/F, priority 2001, published 2008).

SMILES strings stand for the structures.

The conditions of data set [1]: inhaled, administered after or before inhaled corticosteroids.
The test system of data set [2] is patients with reversible obstructive respiratory disease.

With `OCc1cc(C(O)CNCCCCCCOCCCCc2ccccc2)ccc1O` (stereo not shown) [Salmeterol], in data set [1], the tolerability result is listed as “well tolerated”. Moreover, in data set [2] (after inhalation), the “onset of significant bronchodilation” value is reported as “within minutes” and the “time to maximal bronchodilation” value is no more than 2 h. Also, the duration of bronchodilation result in data set [2] (inhalation, patients with reversible obstructive respiratory disease) is “up to 12 hours”.
